The IC50 is the concentration needed to halve the response being measured.

Molecules are shown by their SMILES.

T1 sequence (P21554 whole entry): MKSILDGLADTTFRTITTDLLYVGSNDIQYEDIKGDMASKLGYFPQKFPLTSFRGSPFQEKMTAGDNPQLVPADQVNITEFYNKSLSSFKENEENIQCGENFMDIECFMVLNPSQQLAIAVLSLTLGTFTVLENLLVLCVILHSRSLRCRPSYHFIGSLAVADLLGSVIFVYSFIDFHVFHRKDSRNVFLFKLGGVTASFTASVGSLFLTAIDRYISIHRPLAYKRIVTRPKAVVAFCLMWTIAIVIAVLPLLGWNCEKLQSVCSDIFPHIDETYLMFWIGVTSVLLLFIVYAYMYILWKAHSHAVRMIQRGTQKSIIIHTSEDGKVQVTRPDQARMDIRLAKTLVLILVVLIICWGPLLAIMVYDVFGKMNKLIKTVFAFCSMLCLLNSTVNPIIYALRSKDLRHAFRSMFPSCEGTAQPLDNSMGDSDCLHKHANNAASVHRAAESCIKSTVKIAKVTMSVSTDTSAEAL

One assay has as its target T1, hCB1 (Homo sapiens, UniProt P21554).
T1 construct: made in house; host or cells: Sf9 insect cells (baculovirus), P2 membranes
The assay is described as follows: Agonist-induced GTP binding (GTPγ35S) assay at CB1, Example 8. The assay is classed as biochemical. Particulars: Table I; IC50 at CB1, GTP binding with 1 nM CP55,940; read-out: IC50. The text has this:
As noted above, compounds provided herein are CB1 antagonists. Certain such compounds are non-competitive CB1 antagonists. In addition, or alternatively, certain compounds provided herein display CB1 specificity. CB1 antagonist activity may be confirmed using an agonist-induced GTP binding assay, such as the assay described in Example 8. Such assays employ a CB1-containing cell membrane preparation (e.g., a preparation of membranes of insect cells that recombinantly express CB1) to determine the effect of a test compound on CB1 agonist-induced GTP binding to CB1. Briefly, a first cell membrane preparation comprising CB1 is contacted with: (i) labeled GTP; (ii) a CB1 agonist; and (iii) a test compound to yield a test membrane preparation. Simultaneously, or in either order, a second cell membrane preparation comprising CB1 is contacted with: (i) labeled GTP; and (ii) a CB1 agonist to yield a control membrane preparation. The labeled GTP is preferably GTPγ^35S; a representative CB1 agonist is CP55,940. Such contact is performed under conditions that are suitable for GTP binding to CB1, such as the conditions described in Example 8. The concentrations of labeled GTP and CB1 agonist used are generally concentrations that are sufficient to result in a detectable increase in the amount of labeled GTP bound to the membrane preparation in the presence of CB1 agonist. Such concentrations may be determined by routine experimentation; representative suitable concentrations are provided in Example 8. Generally, a range of test compound concentrations is used (e.g., ranging from 10^−10M to 10^−5M).
After sufficient contact (e.g., incubation) to allow GTP binding to the membrane preparations, a signal that corresponds to (represents) the amount of bound, labeled GTP is detected (typically, unbound labeled GTP is first removed via a washing step). In other words, simultaneously or in either order: (i) a test signal that represents an amount of bound, labeled GTP in the test membrane preparation is detected; and (ii) a control signal that represents an amount of bound, labeled GTP in the control membrane preparation is detected. The nature of the signal detected is determined by the type of label used. For example, if the GTP is radioactively labeled, the signal detected is radioactive decay (e.g., via liquid scintillation spectrometry). The CB1 antagonist activity of the test compound is then determined by comparing the test signal with the control signal.
This assay can also be used to detect partial agonism mediated by antagonist compounds. A compound being analyzed in this assay is referred to herein as a “test compound.” Agonist-stimulated GTP binding activity is measured as follows: Four independent baculoviral stocks (one directing the expression of hCB1 and three directing the expression of each of the three subunits of a heterotrimeric G-protein) are used to infect a culture of Sf9 cells as described in Example 5.
Agonist-stimulated GTP binding on purified membranes (as described in Example 6) is initially assessed using the cannabinoid agonist CP55,940 to ascertain that the receptor/G-protein-alpha-beta-gamma combination(s) yield a functional response as measured by GTP binding.
P2 membranes are resuspended by Dounce homogenization (tight pestle) in GTP binding assay buffer (50 mM Tris pH 7.4, 120 mM NaCl, 5 mM MgCl2, 2 mM EGTA, 0.1% BSA, 0.1 mM bacitracin, 10 KIU/mL aprotinin, 5 μM GDP) and added to reaction tubes at a concentration of 10 μg protein/reaction tube. After adding increasing doses of the agonist CP55,940 at concentrations ranging from 10^−12 M to 10^−6 M, reactions are initiated by the addition of […] GTPγ^35S. In competition experiments, non-radiolabeled test compounds are added to separate assays at concentrations ranging from 10^−10 M to 10^−5 M along with 1 nM CP55,940 to yield a final volume of 0.25 mL. […]
As to `CCc1ccc(NC(=O)Nc2cccc(C)c2)cc1` [Compound 59, N-(4-ethylphenyl)-N′-(3-methylphenyl)urea], the IC50 was under 2 µM.

Still in this assay, the particulars now being: Table II; IC50 at CB1, GTP binding with 1 nM CP55,940; read-out: IC50.
For `COc1cc(NC(=O)Nc2ccc(C)cc2)ccc1OC(F)F` [Compound 61, N-[4-(difluoromethoxy)-3-methoxyphenyl]-N′-(4-methylphenyl)urea], the IC50 was under 2 µM. On the same count and under the same terms, the value for `O=C(Nc1ccc(OC(F)F)cc1)Nc1cccc(-c2ccccn2)c1` [Compound 62, N-[4-(difluoromethoxy)phenyl]-N′-(3-pyridin-2-ylphenyl)urea] was under 2 µM. Still for that read-out and setting: then `O=C(Nc1ccc(OC(F)F)cc1)Nc1cccc(-c2cccnc2)c1` [Compound 63, N-[4-(difluoromethoxy)phenyl]-N′-(3-pyridin-3-ylphenyl)urea], with under 2 µM; and `O=C(Nc1ccc(OC(F)F)cc1)Nc1cccc(-c2cncnc2)c1` [Compound 64, N-[4-(difluoromethoxy)phenyl]-N′-(3-pyrimidin-5-ylphenyl)urea], with under 2 µM. The same measure, in the same setting: the value for `O=C(Nc1ccc(OC(F)F)cc1)Nc1cccc(-c2cnccn2)c1` [Compound 65, N-[4-(difluoromethoxy)phenyl]-N′-(3-pyrazin-2-ylphenyl)urea] was under 2 µM. Take `O=C(Nc1ccc(OC(F)F)cc1)Nc1cccc(-c2ccc(C(F)(F)F)cn2)c1` [Compound 66, N-[4-(difluoromethoxy)phenyl]-N′-{3-[5-(trifluoromethyl)pyridin-2-yl]phenyl}urea]: the 50% inhibitory concentration (IC50) was under 2 µM.

Regarding `O=C(Nc1ccc(OC(F)F)cc1)Nc1cccc(-c2ccc3ncccc3c2)c1` [Compound 67, N-[4-(difluoromethoxy)phenyl]-N′-(3-quinolin-6-ylphenyl)urea], the IC50 was under 2 µM.

For `O=C(Nc1ccc(OC(F)F)cc1)Nc1cccc(-c2cncc3ccccc23)c1` [Compound 68, N-[4-(difluoromethoxy)phenyl]-N′-(3-isoquinolin-4-ylphenyl)urea], the half-maximal inhibitory concentration (IC50) was under 2 µM. As to `O=C(Nc1ccc(OC(F)F)cc1)Nc1cccc(-c2cnc3ccccc3c2)c1` [Compound 69, N-[4-(difluoromethoxy)phenyl]-N′-(3-quinolin-3-ylphenyl)urea], the half-inhibitory concentration (IC50) was under 2 µM. The same measure, in the same setting: then `Cc1ccc2cc(-c3cccc(NC(=O)Nc4ccc(OC(F)F)cc4)c3)ccc2n1` [Compound 70], with under 2 µM; and `O=C(Nc1ccc(OC(F)F)cc1)Nc1cccc(-c2nccs2)c1` [Compound 71], with under 2 µM.

For `COc1ccc(-c2cccc(NC(=O)Nc3ccc(OC(F)F)cc3)c2)cn1` [Compound 72], the IC50 was under 2 µM.

Consider `N#Cc1cncc(-c2cccc(NC(=O)Nc3ccc(OC(F)F)cc3)c2)c1` [Compound 73, N-[3-(5-cyanopyridin-3-yl)phenyl]-N′-[4-(difluoromethoxy)phenyl]urea], for which the IC50 is under 2 µM.

Consider `O=C(Nc1ccc(OC(F)F)cc1)Nc1cccc(-c2ccc(Cl)cn2)c1` [Compound 74, N-[3-(5-chloropyridin-2-yl)phenyl]-N′-[4-(difluoromethoxy)phenyl]urea], for which the IC50 was under 2 µM. On the same count and under the same terms, the value for `CCc1ccc(NC(=O)Nc2cccc(-c3ccc(Cl)cn3)c2)cc1` [Compound 75, N-[3-(5-chloropyridin-2-yl)phenyl]-N′-(4-ethylphenyl)urea] was under 2 µM.

Take `O=C(Nc1ccc(OC(F)F)cc1)Nc1ccc(C(F)(F)F)nc1` [Compound 76, N-[4-(difluoromethoxy)phenyl]-N′-[6-(trifluoromethyl)pyridin-3-yl]urea]: the IC50 is under 2 µM.

Consider `O=C(Nc1ccc(OC(F)F)cc1)Nc1ccc(C(F)(F)F)cc1` [Compound 77, N-[4-(difluoromethoxy)phenyl]-N′-[4-(trifluoromethyl)phenyl]urea], for which the 50% inhibitory concentration (IC50) was under 2 µM. Same read-out and setting: then `Cc1cc(NC(=O)Nc2ccc(OC(F)F)cc2)nc(C)n1` [Compound 78, N-[4-(difluoromethoxy)phenyl]-N′-(2,6-dimethylpyrimidin-4-yl)urea], with under 2 µM; and `COc1cc(NC(=O)Nc2ccc(OC(F)F)cc2)ncn1` [Compound 79, N-[4-(difluorornethoxy)phenyl]-N′-(6-methoxypyrimidin-4-yl)urea], with under 2 µM.

The record behind these values is patent publication US20090239841A1, “Diaryl Ureas as CB1 Antagonists” (priority 2004, published 2009).
